Data reported in ChEMBL document CHEMBL3430912, “GSK Tres Cantos Anti-Kinetoplastid Screening (TCAKS) Data”.

Experiments:
[1] = molecular target: Sterol 14-alpha demethylase (Trypanosoma cruzi (strain CL Brener), UniProt Q7Z1V1); assay: GSK_TCAKS: pIC50 CYP51 from Trypanosoma cruzi.; type: functional
Leishmania donovani [2] = assay: GSK_TCAKS: pIC50 Leishmania donovani viability assay using fluorescence intensity. Assay plates (1536-well) were prepared by adding 30nL per well of compound. For single shot assay, the final compound concentration was 5uM. […] Briefly, eGFP LdBOB axenic amastigotes were harvested, fixed and counted in a CASY cell counter (Roche-Applied Science). A final concentration of 1.5 * 10^5 cells per well were prepared in amastigote media containing 500 U/mL penicillin/streptomycin (Invitrogen) and 6uL was dispensed to each experimental well using a Multidrop Combi dispenser (Thermo Scientific). 6uL of assay media was dispensed to control columns used as reference for 100% compound response. Following incubation for 72 h at 37C, 5% CO2, 2 uL of resazurin was added to each well at a final concentration of 0.5 mM in phosphate buffered saline (PBS) with IGEPAL (Sigma-Aldrich), 0.05% (v/v).; type: functional, organism-based
Leishmania donovani [3] = assay: (§1) GSK_TCAKS: pIC50 Leishmania donovani Imaging: THP-1 Host Macrophages. Assay plates (384-well) were prepared by adding 250nL of compound to each well. For single shot assay, the final compound concentration was 5 uM. […] Automated image analysis was performed with a script developed on Acapella High Content Imaging and Analysis Software (PerkinElmer). Output: THP-1 cell count were reported for each well.; type: functional, organism-based, Homo sapiens
Trypanosoma cruzi [4] = assay: (§2) GSK_TCAKS: pIC50 H2C9 Imaging: H9c2 Host Cardiomyocytes. […] Cells were then washed once with PBS before infection. T. cruzi trypomastigotes, collected at days 5 to 8 after infection from LLC-MK2 parasite infected cultures, were allowed to swim out for 4h at 37C from a centrifuged pellet (2,500 rpm/10 min/room temperature). Trypomastigotes were then collected and counted in a CASY Cell Counter. Trypomastigotes, in supplemented DMEM, were added to H9c2 cultures in a multiplicity of infection of 1 and incubated for 18 h. Cells were washed once with PBS before incubation of the infected H9c2 monolayer with trypsin (Life-Technologies) to detach cells from the flask. Cells were counted in a CASY Cell Counter using a 150 um capillary and their density set at 5 * 10^4 cells per mL in supplemented assay DMEM. Infected H9c2 were dispensed into 384-well poly-lysine coated assay plates at 50uL per well using a Multidrop Combi dispenser. After seeding them, the plates were incubated at 37C, 5% CO2 for 72h. Cultures were then fixed and stained by addition of 50 uL of a solution containing 8% formaldehyde and 4 uM DRAQ5 DNA dye (BioStatus, UK) per well. […] Five images were collected per well for reliable statistical analysis. Automated image analysis was performed with a script developed on Acapella High Content Imaging and Analysis Software (PerkinElmer). Output: Number of H9c2 Host Cardiomyocytes nuclei to determine drug-related cytotoxicity.; type: functional, organism-based, Rattus norvegicus; settings: H9c2, 4 h
Trypanosoma cruzi [5] = assay: GSK_TCAKS: pIC50 Trypanosoma cruzi viability assay using beta-GAL activity. This assay was run at single shot at 5uM compound concentration per well. The biological reagents consisted of NIH-3T3 host cells and trypomastigotes parasitic cells; both cell types were set to a 3.3 * 10^5 cells/mL dilution in assay DMEM by means of a CASY cell counter device using a 60um capillary. 6 uL of the mixture were dispensed per well (about 1 * 10^3 host-cells and 1 * 10^3 parasites) with a Multidrop Combi dispenser. […] In all wells, the percentage of DMSO never exceeded 0.5%. Plates incubated for four days at 37C, 5% CO2. The substrate used for the assay fluorescence intensity (FLINT) readout was resorufin-beta-D-galactopiranoside (Sigma-Aldrich) at 5uM per well. It was diluted in PBS supplemented with the soft detergent Igepal (Fluka).; type: functional, organism-based, Mus musculus; settings: Tulahuen, NIH3T3
Trypanosoma cruzi [6] = assay: as §2, with “Trypanosoma cruzi” for “H2C9”, “Amastigotes/Cell.” for “H9c2 Host Cardiomyocytes.”, “number” for “Number”, “amastigotes per cell as infection level measurement.” for “H9c2 Host Cardiomyocytes nuclei to determine drug-related cytotoxicity.”; type: functional, organism-based, Rattus norvegicus; settings: H9c2, 4 h
Leishmania donovani [7] = assay: as §1, with “Infected” for “THP-1 Host”, “Percent of infected macrophage cells” for “THP-1 cell count”; type: functional, organism-based, Homo sapiens; settings: THP-1
Leishmania donovani [8] = assay: as §1, with “Amastigotes/Macrophages.” for “THP-1 Host Macrophages.”, “Average number of amastigotes per macrophage” for “THP-1”, “cell” for “cell count”; type: functional, organism-based, Homo sapiens; settings: THP-1
[9] = system: Trypanosoma brucei brucei; assay: GSK_TCAKS: pIC50 Trypanosoma brucei viability assay using luminiscence. Assay plates (1536-well) were prepared. T. brucei cultures were harvested and counted in a CASY cell counter. A parasite suspension was prepared at a final concentration of 5 * 10^4 cells/mL in complete HMI9 medium and 6uL was dispensed to all wells containing compounds using a Multidrop Combi dispenser. 6uL of HMI9 media with 0.4% DMSO were dispensed to control columns. Plates were incubated for 24 h at 37C, 5% CO2 then tempered for 10 min at room temperature. ATP content was quantified by adding 4 uL of CellTiter-Glo Reagent (Promega) according to the manufacturer's instructions. Luminescence was measured using a ViewLux.; type: functional, organism-based; settings: Lister 427, CASY
Trypanosoma cruzi [10] = assay: as §2, with “Trypanosoma cruzi” for “H2C9”, “Infected Cells.” for “H9c2 Host Cardiomyocytes.”, “percentage” for “Number”, “infected cells per well as a second infection marker.” for “H9c2 Host Cardiomyocytes nuclei to determine drug-related cytotoxicity.”; type: functional, organism-based, Rattus norvegicus; settings: H9c2, 4 h
[11] = GSK_TCAKS: pIC50 HepG2 human cell line viability assay using luminiscence. […] Seeding density was checked to ensure that new mono-layers were not more than 50% confluent at the time of harvesting. Cell suspension was added to 500 mL of the same medium at a final density of 1.2 * 10^5 cells/mL. This cell suspension was dispensed (25 uL, 3000 cells per well) into 384-well clear-bottom plates using a Multidrop Combi dispenser. Prior to addition of the cell suspension, the screening compounds (250 nL) were pre-dispensed into the plates with an Echo liquid handler. Plates were incubated for 48 h at 37C, 5% CO2. After incubation, plates equilibrated at room temperature for 30 min before proceeding to develop the luminescent signal. The signal developer, CellTiter-Glo Reagent, was allowed to equilibrate at room temperature for 30 min and added to the plates (25uL per well) using a Multidrop Combi dispenser. Plates were left for 10 min at room temperature for stabilization and then read using a ViewLux.; type: toxicity, cell-based
[12] = system: Trypanosoma brucei brucei; assay: GSK_TCAKS: pIC50 Trypanosoma brucei viability assay using fluorescence intensity. Assay plates (1536-well) were prepared by dispensing 25nL of compound solution per well using an Echo acoustic dispenser (Labcyte).; type: functional, organism-based; settings: Lister 427, 2 h

Chain of Sterol 14-alpha demethylase (Q7Z1V1 whole entry): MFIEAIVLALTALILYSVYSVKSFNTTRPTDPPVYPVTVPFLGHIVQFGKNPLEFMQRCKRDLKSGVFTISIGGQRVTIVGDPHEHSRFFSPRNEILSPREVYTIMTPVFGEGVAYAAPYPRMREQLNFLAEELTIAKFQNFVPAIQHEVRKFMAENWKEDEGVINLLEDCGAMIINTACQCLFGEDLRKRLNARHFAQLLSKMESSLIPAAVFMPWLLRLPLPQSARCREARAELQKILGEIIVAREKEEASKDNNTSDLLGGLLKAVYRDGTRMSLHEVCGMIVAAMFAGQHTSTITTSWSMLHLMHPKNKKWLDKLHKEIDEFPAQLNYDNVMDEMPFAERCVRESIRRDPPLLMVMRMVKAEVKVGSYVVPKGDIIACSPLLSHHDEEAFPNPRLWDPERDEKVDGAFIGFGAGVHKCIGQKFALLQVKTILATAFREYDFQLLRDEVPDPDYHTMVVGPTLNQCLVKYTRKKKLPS

| Structure (SMILES) | IC50 [1] [µM] | IC50 (Leishmania donovani [2]) [µM] | IC50 (Leishmania donovani [3]) [µM] | IC50 (Trypanosoma cruzi [4]) [µM] | IC50 (Trypanosoma cruzi [5]) [µM] | IC50 (Trypanosoma cruzi [6]) [µM] | IC50 (Leishmania donovani [7]) [µM] | IC50 (Leishmania donovani [8]) [µM] | IC50 [9] [µM] | IC50 (Trypanosoma cruzi [10]) [µM] | IC50 at 48 h [11] [µM] | IC50 [12] [µM] |
| --- | --- | --- | --- | --- | --- | --- | --- | --- | --- | --- | --- | --- |
| COc1ccc(Nc2nc(-c3ccccn3)cs2)c(OC)c1 | 20 | 6.31 | > 50.1 | 2 | 3.98 | 5.01 | 2.51 | 2 | 25.1 | 7.94 | > 100 | 20 |
| O=C(Nc1nc(-c2ccccn2)cs1)c1ccccc1-n1cnnn1 | > 100 | 3.16 | 5.01 | 5.01 | 3.55 | 2 | 6.31 | 3.98 | 0.631 | 3.16 | 1.58 | 0.631 |
| Cn1c(CC(=O)NNC(=O)c2ccc3ccccc3n2)nc2ccccc21 | 31.6 | 6.31 | > 50.1 | > 50.1 | 3.16 | 6.31 | 1.26 | 0.794 | 6.31 | 5.01 | > 100 | 7.94 |
| CS(=O)(=O)N[C@H]1CC[C@H](Nc2ncc(Br)c(Nc3ccccc3C(N)=O)n2)CC1 | > 100 | 1 | 0.501 | 0.501 | 7.94 | 2 | 2 | 0.794 | 0.0794 | 5.01 | > 100 | 0.158 |
| COc1ccccc1C1CC(c2ccc(NS(C)(=O)=O)cc2)=NN1C(=O)c1cccs1 (centres undefined) | 25.1 | 3.98 | > 50.1 | > 50.1 | 25.1 | > 50.1 | 3.98 | 2.51 | 20 | > 50.1 | > 100 | 15.8 |
| COCc1cc(Nc2ccccc2)nc(-c2ccccn2)n1 | > 100 | 7.94 | > 50.1 | 3.98 | 5.01 | 12.6 | 7.94 | 5.01 | > 39.8 | 25.1 | 100 | > 39.8 |
| O=C1CN(C(=O)c2cccc(Nc3ncc(-c4ccc5c(c4)OCO5)cn3)c2)CCN1 | 25.1 | 1.58 | > 63.1 | > 63.1 | 1.58 | 0.501 | 5.01 | 2 | > 50.1 | 0.794 | > 126 | > 50.1 |
| Cc1ccccc1NS(=O)(=O)c1ccc2[nH]cc(C(=O)NC3CCCC(C)C3C)c(=O)c2c1 (centres undefined) | 5.01 | 25.1 | 12.6 | 6.31 | 5.01 | 3.16 | 15.8 | 15.8 | 0.631 | 6.31 | 39.8 | 0.316 |
| Cc1cc(NC(=O)c2ccc([N+](=O)[O-])s2)ccc1Br | 10 | 3.16 | 15.8 | 2.51 | 0.251 | 0.251 | 2.51 | 1.58 | 5.01 | 0.398 | 39.8 | 0.316 |
| CCN(CC)c1ccc(S(=O)(=O)N(CC)CC)c2nonc12 | 25.1 | 6.31 | 15.8 | > 50.1 | 25.1 | 20 | 0.398 | 0.126 | 25.1 | 50.1 | > 100 | 25.1 |
| N#Cc1cccc(Nc2nccc(N3CCC(NS(=O)(=O)c4cccc(C#N)c4)CC3)n2)c1 | 7.94 | 0.631 | > 50.1 | 31.6 | 1.58 | 3.16 | 10 | 6.31 | 6.31 | 7.94 | 50.1 | 6.31 |
| O=C(Nc1cccc(Cl)c1)Nc1ccc([N+](=O)[O-])cc1Cl | 5.01 | 6.31 | 25.1 | 3.98 | 1.26 | 1.58 | 3.16 | 2 | 3.16 | 2 | 31.6 | 2.51 |
| N#Cc1ccc(Br)cc1[N+](=O)[O-] | 50.1 | 7.94 | 25.1 | 39.8 | 0.251 | 0.0631 | 20 | 12.6 | 0.2 | 0.794 | 20 | 0.158 |
| CC1CN(Cc2ccc(C#N)cc2)CCN1c1ccc(NC(=O)c2ccccc2F)cc1 (centres undefined) | 31.6 | 39.8 | > 50.1 | > 50.1 | 25.1 | > 50.1 | 10 | 5.01 | > 39.8 | > 50.1 | > 100 | > 39.8 |
| CNc1nc(C)nc(N2CCc3cc(C(=O)NCc4ccc(-c5nccn5C)cc4Cl)ccc32)n1 | 1.58 | 5.01 | 25.1 | 50.1 | 5.01 | 5.01 | 0.794 | 0.794 | 20 | 12.6 | 31.6 | 12.6 |
| O=C(Nc1nc(-c2ccc(F)cc2)cs1)c1ccc([N+](=O)[O-])s1 | 50.1 | 0.631 | 7.94 | 3.98 | 0.2 | 0.158 | 1.26 | 1 | 1.26 | 0.251 | 12.6 | 0.251 |
| Cc1ccccc1NS(=O)(=O)c1ccc2[nH]cc(C(=O)NC3CCCCC3)c(=O)c2c1 | 10 | > 50.1 | 31.6 | 25.1 | 10 | 10 | 39.8 | 39.8 | 0.316 | 15.8 | 31.6 | 0.251 |
